Patent publication EP0076669A1, “Novel 3-phenyl-1-indanamines, pharmaceutical compositions and methods of preparation” (KEFALAS A/S, priority 1981, dated 1983)
Counter-ions that a name gives are not always drawn.

Tests used:
[1] = test system: tetrabenazine induced ptosis; experiment: Tetrabenazine ptosis antagonism; assay type: in vivo; conditions: Mus musculus, ip, 0.5 h; i.p., mice; tetrabenazine 40 mg/kg i.p. 30 min after test substance
Experimental: For insoluble substances the doses 0, 1/8, 1/32 and 1/128 of "i.^p. LD50" are used. 3 mice are used for each dose level. Thirty minutes after administration of test substance, tetrabenazine, 40 mg/kg, is injected i.p. Ptosis is evaluated 30 minutes after administration of tetrabenazine, the following rating scale being used: 0 = normal eyes, 1=1/4 closed eyes, 2 = 1/2 closed eyes, 3 = 3/4 closed eyes and 4 = completely closed eyes. Ptosis is evaluated 30 seconds after tilting the cage 3 times. The tilting is carried out in such a way that the animals slide along the floor of the cage.
The results are recorded as % inhibition of ptotic score calculated on the basis of the score of the control group. If ptotic score for the control group is < 10 the test is rejected and another is performed. The registration can also be done as an on line procedure.

potentiation of 5-HTP = experiment: 5-HTP potentiation (5-HTP syndrome); assay type: in vivo; conditions: Mus musculus, ip, 0.5 h; i.p., mice; 5-HTP 100 mg/kg i.v. 30 min after test substance; read-out: 5-HTP potentation,ED50
Experimental: The test substance is given i.p. or p.o. in the doses 10, 10, 2.5, 0.63 and 0 mg/kg. Three mice are used for each dose level. One of the groups on the highest dose is used as control of the compounds own effect. […] Thirty minutes after administration of test substance, 5-HTP, 100 mg/kg i.v. is given (injection time 5-10 sec.). After this 5-HTP dose the animals remain unaffected. If the animals have been pretreated with a substance, which inhibits the re-uptake of 5-HT, a 5-HTP syndrome will occur. This is characterized by the following symptoms: 1) excitation, 2) tremor, and 3) abduction of the hind limbs.
After the administration of 5-HTP the animals are observed for 15 minutes and each animal is given one point for each symptom present. Thus, the maximal score for a group consisting of 3 mice is 9.
The results are stated as fractions: 0/9, 1/9, 2/9 ..... 8/9, 9/9, where 0, 1, 2 ..... 8, 9 are the number of points per group after the dose in question.

Row | Compound | ED50 [1] | ED50 (potentiation of 5-HTP)
1 | Clc1ccc([C@@H]2C[C@@H](NCCc3ccccc3)c3ccccc32)cc1Cl (relative stereo) [Lu 19-078-c] | 33 µmol/kg | 142 µmol/kg
2 | CN(C)[C@@H]1C[C@H](c2ccc(F)c(Cl)c2)c2ccccc21 (relative stereo) [Lu 19-101-c, cis-N,N-dimethyl-3-(3-chloro-4-fluorophenyl)-1-indanamine, hydrochloride] | 24 µmol/kg | 51 µmol/kg
3 | CN[C@@H]1C[C@@H](c2ccc(Cl)c(Cl)c2)c2ccc(OC)cc21 (relative stereo) [Lu 20-015-o] | 7 µmol/kg | 14 µmol/kg
4 | CN[C@@H]1C[C@H](c2cccc(Cl)c2)c2ccccc21 (relative stereo) [Lu 19-110-c] | 142 µmol/kg | 124 µmol/kg
5 | CN(C)[C@@H]1C[C@@H](c2ccc(Cl)c(Cl)c2)c2ccccc21 (relative stereo) [Lu 18-118] | 83 µmol/kg | 5 µmol/kg
6 | CN[C@@H]1C[C@H](c2ccccc2)c2ccccc21 (relative stereo) [Lu 19-094] | > 154 µmol/kg | 211 µmol/kg
7 | CNC1CC(c2ccc(F)c(Cl)c2)c2ccccc21 (stereo not shown) [Lu 19-086-c] | 32 µmol/kg | 30 µmol/kg
8 | CN(C)[C@@H]1C[C@H](c2ccc(Cl)c(Cl)c2)c2ccc(F)cc21 (relative stereo) [Lu 19-144-c] | > 111 µmol/kg | 29 µmol/kg
9 | CN[C@@H]1C[C@@H](c2ccc(F)cc2)c2ccccc21 (relative stereo) [Lu 19-109-c] | 6.3 µmol/kg | > 36 µmol/kg
10 | CN(C)[C@@H]1C[C@@H](c2ccc(C#N)cc2)c2ccc(F)cc21 (relative stereo) [Lu 19-070-c] | 45 µmol/kg | 25 µmol/kg
11 | CNC1CC(c2ccc(Cl)c(Cl)c2)c2ccccc21 (single isomer, unassigned; (-)) [Lu 20-043-c, (-) trans N-methyl-3-(3,4-dichlorophenyl)-1-indanamine, hydrochloride] | – | 16 µmol/kg
12 | CN(C)CCCC1(c2ccc(F)cc2)OCc2cc(C#N)ccc21 (stereo not shown) [Citalo-pram, reference compound] | 20 µmol/kg | 3.3 µmol/kg
13 | CN(C)[C@@H]1C[C@H](c2cccc(Cl)c2)c2ccccc21 (relative stereo) [Lu 19-116-c] | 85 µmol/kg | 78 µmol/kg
14 | CCCN(CCC)[C@@H]1C[C@H](c2ccc(Cl)c(Cl)c2)c2ccccc21 (relative stereo) [Lu 19-043-c] | > 100 µmol/kg | > 100 µmol/kg
15 | CN[C@@H]1C[C@H](c2ccc(Cl)c(Cl)c2)c2ccc(O)cc21 (relative stereo) [Lu 20-030] | 15 µmol/kg | 59 µmol/kg
16 | CN(C)[C@@H]1C[C@H](c2ccc(Cl)cc2)c2ccccc21 (relative stereo) [Lu 19-124] | 43 µmol/kg | 109 µmol/kg
17 | CN(C)[C@@H]1C[C@@H](c2ccc(F)c(F)c2)c2ccccc21 (relative stereo) [Lu 19-095-c] | 7.1 µmol/kg | 73 µmol/kg
18 | CN(C)[C@@H]1C[C@@H](c2ccc(Cl)cc2Cl)c2ccccc21 (relative stereo) [Lu 18-136-c] | 23 µmol/kg | 19 µmol/kg
19 | CN(C)C1CC(O)(c2ccc(F)c(Cl)c2)c2ccccc21 (stereo not shown) [Lu 19-114, N,N-dimethyl-3-(3-chloro-4-fluorophenyl)-3-hydroxy-1-indanamine] | 14 µmol/kg | 26 µmol/kg
20 | CCN[C@@H]1C[C@@H](c2ccc(Cl)c(Cl)c2)c2ccccc21 (relative stereo) [Lu 19-040-c] | > 7 µmol/kg | 26 µmol/kg
21 | OCCN(CCO)[C@@H]1C[C@@H](c2ccc(Cl)c(Cl)c2)c2ccccc21 (relative stereo) [Lu 19-082-c] | 104 µmol/kg | > 99 µmol/kg
22 | CN[C@@H]1C[C@@H](c2ccc(Cl)cc2)c2ccccc21 (relative stereo) [Lu 19-119] | > 155 µmol/kg | 34 µmol/kg
23 | CN[C@@H]1C[C@H](c2ccc(Cl)c(Cl)c2)c2ccccc21 (relative stereo) [Lu 19-006-c, cis-N-methyl-3-(3',4'-dichlorophenyl)-1-indanamine] | 5.8 µmol/kg | –
24 | CN[C@@H]1C[C@@H](c2ccc(Cl)c(Cl)c2)c2ccccc21 (single isomer, unassigned) [Lu 20-042-c, (+) trans N-methyl-3-(3,4-dichlorophenyl)-1-indanamine, hydrochloride] | 7.6 µmol/kg | –
25 | CNC1CC(c2ccc(F)cc2)c2ccc(F)cc21 (stereo not shown) [Lu 13-164-o] | 22 µmol/kg | 57 µmol/kg
26 | CN[C@@H]1C[C@H](c2ccc(Cl)cc2)c2ccccc21 (relative stereo) [Lu 19-120-c] | > 34 µmol/kg | 23 µmol/kg

Row | Compound | ED50 [1] | ED50 (potentiation of 5-HTP)
27 | CN[C@@H]1C[C@H](c2ccc(Cl)c(Cl)c2)c2ccc(F)cc21 (relative stereo) [Lu 19-137-c] | 15 µmol/kg | 34 µmol/kg
28 | COc1ccc2c(c1)C(N(C)C)CC2c1ccc(Cl)c(Cl)c1 (stereo not shown) [Lu 20-050] | 119 µmol/kg | 26 µmol/kg
29 | CN(C)[C@@H]1C[C@@H](c2ccc(F)cc2)c2ccccc21 (relative stereo) [Lu 19-007-c] | 7.8 µmol/kg | 45 µmol/kg
30 | Clc1ccc([C@@H]2C[C@@H](NCC=Cc3ccccc3)c3ccccc32)cc1Cl (relative stereo) [Lu 19-083-o] | > 83 µmol/kg | > 83 µmol/kg
31 | CN(C)[C@@H]1C[C@@H](c2cccc(Cl)c2)c2ccccc21 (relative stereo) [Lu 19-115-c] | 10 µmol/kg | 43 µmol/kg
32 | OCCNC1CC(c2ccc(Cl)c(Cl)c2)c2ccccc21 (stereo not shown) [Lu 19-073-c] | > 111 µmol/kg | > 111 µmol/kg
33 | CN(C)C1CC(c2ccc(F)c(F)c2)c2ccccc21 (stereo not shown) [Lu 19-096-c] | 13 µmol/kg | 42 µmol/kg
34 | CN(C)[C@@H]1C[C@@H](c2ccc(F)c(Cl)c2)c2ccccc21 (relative stereo) [Lu 19-100-c, trans N,N-dimethyl-3-(3-chloro-4-fluorophenyi)-1-indanamine] | 4 µmol/kg | 37 µmol/kg
35 | CN(C)[C@@H]1C[C@@H](c2ccc(Cl)cc2)c2ccccc21 (relative stereo) [Lu 19-121] | 66 µmol/kg | 18 µmol/kg
36 | Clc1ccc([C@@H]2C[C@@H](NCc3ccccc3)c3ccccc32)cc1Cl (relative stereo) [Lu 19-071-c] | > 25 µmol/kg | > 25 µmol/kg
37 | CN[C@@H]1C[C@@H](c2ccc(Cl)cc2Cl)c2ccccc21 (relative stereo) [Lu 19-099-c] | 19 µmol/kg | 67 µmol/kg
38 | CN[C@@H]1C[C@@H](c2ccc(F)c(F)c2)c2ccccc21 (relative stereo) [Lu 19-098-c] | – | 22 µmol/kg
39 | CN[C@@H]1C[C@@H](c2ccc(F)cc2)c2ccc(F)cc21 (relative stereo) [Lu 19-097-c] | – | 94 µmol/kg
40 | Clc1ccc(C2CC(NCc3ccccc3)c3ccccc32)cc1Cl (stereo not shown) [Lu 19-072-c] | > 99 µmol/kg | > 99 µmol/kg
41 | CN[C@@H]1C[C@@H](c2ccc(F)c(Cl)c2)c2ccccc21 (relative stereo) [Lu 19-085-c, trans-N-methyl-3-(3'-chloro-4'-fluorophenyl)-I-indanamine hydrochloride] | 51 µmol/kg | 47 µmol/kg
42 | CN[C@@H]1C[C@@H](c2cccc(Cl)c2)c2ccccc21 (relative stereo) [Lu 19-111-c] | 45 µmol/kg | 92 µmol/kg
43 | Clc1ccc(C2CC(NCCc3ccccc3)c3ccccc32)cc1Cl (stereo not shown) [Lu 19-079-o] | > 85 µmol/kg | > 85 µmol/kg
44 | CN(C)[C@@H]1C[C@@H](c2ccc(Br)cc2)c2ccccc21 (relative stereo) [Lu 19-056] | 10 µmol/kg | 8 µmol/kg
45 | CN[C@@H]1C[C@@H](c2ccc(Cl)c(Cl)c2)c2ccccc21 (relative stereo) [Lu 19-005-c, trans-N-methyl-3-(3',4'-dichlorophenyl)-I-indanamine] | – | 6.7 µmol/kg
46 | CN1Cc2c(N)cccc2C(c2ccccc2)C1 (stereo not shown) [Nomi-phensine, nomiphensine, reference compound] | 4.3 µmol/kg | > 56 µmol/kg
47 | CN[C@@H]1C[C@@H](c2ccc(F)cc2)c2ccc(C)cc21 (relative stereo) [Lu 19-092-c] | 34 µmol/kg | 63 µmol/kg
48 | CN[C@@H]1C[C@@H](c2ccc(Br)cc2)c2ccccc21 (relative stereo) [Lu 19-102-c] | 4 µmol/kg | 8.8 µmol/kg
49 | CN(C)[C@@H]1C[C@@H](c2ccc(F)cc2)c2ccc(C(F)(F)F)cc21 (relative stereo) [Lu 18-047-c] | 166 µmol/kg | –
50 | CN[C@@H]1C[C@H](c2ccc(Cl)c(Cl)c2)c2ccc(OC)cc21 (relative stereo) [Lu 20-016-o] | 14 µmol/kg | 3 µmol/kg
51 | CN[C@@H]1C[C@H](c2ccc(Cl)cc2Cl)c2ccccc21 (relative stereo) [Lu 19-113-c] | 98 µmol/kg | 71 µmol/kg
52 | CN(C)[C@@H]1C[C@@H](c2ccc(Cl)c(Cl)c2)c2ccc(F)cc21 (relative stereo) [Lu 19-143-c] | > 111 µmol/kg | 14 µmol/kg
